≈ marks a conversion by molar mass, not a printed value.
Tests used:
[1] = target: T1, recombinant human CD73 (hCD73) (Homo sapiens, UniProt P21589); experiment: CD73 activity assay on recombinant human CD73; format: biochemical; settings: ΔGexp = RT ln Ki
T1 sequence (P21589 27-574): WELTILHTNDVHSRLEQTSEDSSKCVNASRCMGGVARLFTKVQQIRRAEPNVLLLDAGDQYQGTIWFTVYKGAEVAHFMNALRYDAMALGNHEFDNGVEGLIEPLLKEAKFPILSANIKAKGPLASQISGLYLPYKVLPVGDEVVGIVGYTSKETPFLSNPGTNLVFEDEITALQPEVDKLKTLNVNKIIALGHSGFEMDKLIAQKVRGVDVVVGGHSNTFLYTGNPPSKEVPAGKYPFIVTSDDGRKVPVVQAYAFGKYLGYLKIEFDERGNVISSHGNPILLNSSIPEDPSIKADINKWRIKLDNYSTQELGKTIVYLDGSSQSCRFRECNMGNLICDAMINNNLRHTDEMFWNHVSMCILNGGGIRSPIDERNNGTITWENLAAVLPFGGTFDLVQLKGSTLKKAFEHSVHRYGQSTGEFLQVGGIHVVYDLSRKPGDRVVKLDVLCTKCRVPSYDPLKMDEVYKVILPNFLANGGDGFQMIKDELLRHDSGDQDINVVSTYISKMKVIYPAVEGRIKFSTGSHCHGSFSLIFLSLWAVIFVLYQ

[2] = In vivo pharmacokinetic study, intravenous; set-up: species or system male CD-1 mice; settings: plasma, 1 mg/kg, intravenous; for half-life: male, CD-1, mouse, iv, footnote: t1/2 stability in plasma, text: half-life in mouse PK; for clearance: mouse, male CD-1 mice, single dose, read-out: Cl (obs), observed clearance
Procedure: The pharmacokinetic study was performed by Bienta (Enamine Biology Services) using male CD-1 mice (3 animals, 9 weeks old, body weight ranging from 29.2 to 33.7 g) following intravenous administration. Levels of the test compound were determined by LC-MS/MS in blood plasma over time (seven sampling time points: 5, 15, 30, 60, 120, 240, and 480 min) after a single dose.
Animal treatment and samples preparation were conducted by the Animal Laboratory personnel at Enamine/Bienta.

[3] = Plasma protein binding, equilibrium dialysis, human plasma; format: in vitro ADME; settings: undiluted plasma, human plasma protein binding, read-out: PPB (hu) (converted)
[4] = Plasma protein binding, mouse plasma; format: in vitro ADME; settings: mouse, plasma
[5] = Kinetic solubility in PBS; format: physicochemical; settings: phosphate-buffered saline, pH 7.4, aqueous buffer, kinetic from dmso stock
How it was run: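 DMSO stocks diluted into PBS pH 7.4 to 100 μM and shaken 2 h at room temperature in duplicate, then filtered by centrifugation. Filtrates diluted 1:99 in 50% acetonitrile. Quantified by Echo-MS against calibration standards spanning 0.05–4 μM.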

[6] = Microsomal stability assay, human liver microsomes; format: in vitro ADME; settings: for Mics (hu) comp remaining 60 min: 10 μM; for microsomal CLint at 10 µM: pooled liver microsomes, pH 7.4, read-out: Mics (hu) CLint
[7] = Microsomal stability assay, mouse liver microsomes; format: in vitro ADME; settings: for Mics (m) comp remaining 60 min: 10 μM; for microsomal CLint at 10 µM: pooled liver microsomes, pH 7.4, read-out: Mics (m) CLint
[8] = tested on: CCRF-CEM; experiment: In vitro cytotoxic activity; format: cell-based; settings: Homo sapiens
Procedure: (§1) All the compounds were also tested for their in vitro cytotoxic activity on a small panel of four cancer cell lines (CCRF-CEM, HepG2, HeLa S3, HL-60) and nonmalignant human dermal fibroblasts (NHDF).

[9] = tested on: HL-60; experiment: In vitro cytotoxic activity; format: cell-based; settings: Homo sapiens
Procedure: as §1

[10] = tested on: HeLa S3; experiment: In vitro cytotoxic activity; format: cell-based; settings: Homo sapiens
Procedure: as §1

[11] = tested on: HepG2; experiment: In vitro cytotoxic activity; format: cell-based; settings: Homo sapiens
Procedure: as §1

[12] = tested on: nonmalignant human dermal fibroblasts (NHDF); experiment: In vitro cytotoxic activity; format: cell-based
Procedure: as §1

[13] = in vitro; settings: human, plasma
[14] = in vitro; settings: mouse, plasma
[15] = Tables 2 and 4, mouse plasma, read-out: fup, fraction unbound in mouse plasma
[16] = mouse plasma protein binding, read-out: PPB (m) (converted)

Compound | dG_exp, experimental binding free energy [1] | half-life [2] | clearance [2] | fraction unbound at 4 h, 100 µM [3] | fraction unbound at 4 h, 100 µM [4, 15] | fraction unbound at 4 h, 100 µM [4, 16] | solubility at 2 h [5] | Mics (hu) comp remaining 60 min [6] | microsomal CLint at 10 µM [6] | Mics (m) comp remaining 60 min [7] | microsomal CLint at 10 µM [7] | IC50 [8] | IC50 [9] | IC50 [10] | IC50 [11] | IC50 [12] | half-life at 10 µM [13] | half-life at 10 µM [14]
O=P(O)(O)CP(=O)(O)OC[C@H]1O[C@@H](n2ccc3c(-c4ccco4)nc(Cl)nc32)[C@H](O)[C@@H]1O [7B.1, [(5-{[2-Chloro-4-(furan-2-yl)-7H-pyrrolo[2,3-d]pyrimidin-7-yl]-β-D-ribofuranosyl}oxy)phosphonomethyl]phosphonic Acid] | –15.2 kcal/mol | 0.105 h | 8.3 mL/min/kg | 0.098 | 0.92 | 0.818 | > 100 µM | 98% | 2 µL/min/mg | 106% | < 1 µL/min/mg | 8.8 µM | 5.6 µM | > 10 µM | > 10 µM | > 10 µM | > 2 h | > 2 h
Cc1nc(-c2cc3ccccc3o2)c2ccn([C@@H]3O[C@H](COP(=O)(O)CP(=O)(O)O)[C@@H](O)[C@H]3O)c2n1 [18E.8] | –14.7 kcal/mol | 0.25 h | 7.4 mL/min/kg | 0.026 | 0.3 | 0.302 | 86 µM (≈ 46.4 µg/mL) | 95% | 2 µL/min/mg | 103% | < 1 µL/min/mg | > 10 µM | > 10 µM | > 10 µM | > 10 µM | > 10 µM | > 2 h | > 2 h
O=P(O)(O)CP(=O)(O)OC[C@H]1O[C@@H](n2ccc3c(-c4cc5ccccc5o4)nc(Cl)nc32)[C@H](O)[C@@H]1O [7B.8] | –16.0 kcal/mol | 0.142 h | 8.8 mL/min/kg | 0.033 | 0.19 | 0.187 | 87 µM (≈ 48.7 µg/mL) | 98% | 1 µL/min/mg | 109% | < 1 µL/min/mg | > 10 µM | 6 µM | > 10 µM | > 10 µM | > 10 µM | > 2 h | > 2 h
O=P(O)(O)CP(=O)(O)OC[C@H]1O[C@@H](n2ccc3c(-c4ccc5ccccc5c4)nc(Cl)nc32)[C@H](O)[C@@H]1O [7B.7] | –15.9 kcal/mol | 0.122 h | 8.3 mL/min/kg | 0.033 | 0.11 | 0.112 | 84 µM (≈ 47.9 µg/mL) | 111% | < 1 µL/min/mg | 106% | < 1 µL/min/mg | > 10 µM | > 10 µM | > 10 µM | > 10 µM | > 10 µM | > 2 h | > 2 h
O=P(O)(O)CP(=O)(O)OC[C@H]1O[C@@H](n2ccc3c(-c4ccc5cc(Cl)ccc5c4)nc(Cl)nc32)[C@H](O)[C@@H]1O [7B.27] | –15.3 kcal/mol | 2.43 h | 6.7 mL/min/kg | ≤ 0.01 | 0.04 | 0.036 | 89 µM (≈ 53.8 µg/mL) | 148% | < 2 µL/min/mg | 140% | < 2 µL/min/mg | > 10 µM | > 10 µM | > 10 µM | > 10 µM | > 10 µM | > 2 h | > 2 h
O=P(O)(O)CP(=O)(O)OC[C@H]1O[C@@H](n2ccc3c(-c4ccc5cc(O)ccc5c4)nc(Cl)nc32)[C@H](O)[C@@H]1O [7B.32] | –15.8 kcal/mol | 0.113 h | 11 mL/min/kg | 0.084 | 0.2 | 0.198 | > 100 µM | 104% | < 2 µL/min/mg | 111% | < 2 µL/min/mg | > 10 µM | > 10 µM | > 10 µM | > 10 µM | > 10 µM | > 2 h | > 2 h
COC(=O)c1ccc2cc(-c3nc(Cl)nc4c3ccn4[C@@H]3O[C@H](COP(=O)(O)CP(=O)(O)O)[C@@H](O)[C@H]3O)ccc2c1 [7B.29] | –14.6 kcal/mol | 0.138 h | 7.2 mL/min/kg | ≤ 0.01 | 0.23 | 0.234 | 85 µM (≈ 53.4 µg/mL) | 132% | < 2 µL/min/mg | 112% | < 2 µL/min/mg | > 10 µM | > 10 µM | > 10 µM | > 10 µM | > 10 µM | > 2 h | > 2 h
O=P(O)(O)CP(=O)(O)OC[C@H]1O[C@@H](n2ccc3c(-c4ccc5cc(F)ccc5c4)nc(Cl)nc32)[C@H](O)[C@@H]1O [7B.25] | –15.4 kcal/mol | 0.283 h | 5.9 mL/min/kg | ≤ 0.01 | 0.08 | 0.079 | > 100 µM | 108% | < 2 µL/min/mg | 109% | < 2 µL/min/mg | > 10 µM | > 10 µM | > 10 µM | > 10 µM | > 10 µM | > 2 h | > 2 h
O=P(O)(O)CP(=O)(O)OC[C@H]1O[C@@H](n2ccc3c(-c4cc5ccccc5[nH]4)nc(Cl)nc32)[C@H](O)[C@@H]1O [7B.24] | –15.7 kcal/mol | 0.617 h | 12 mL/min/kg | 0.012 | 0.21 | 0.201 | > 100 µM | 111% | < 1 µL/min/mg | 72% | 12 µL/min/mg | > 10 µM | > 10 µM | > 10 µM | > 10 µM | > 10 µM | > 2 h | > 2 h
O=P(O)(O)CP(=O)(O)OC[C@H]1O[C@@H](n2ccc3c(-c4cc(Br)c5ccccc5c4F)nc(Cl)nc32)[C@H](O)[C@@H]1O [7B.26] | –15.7 kcal/mol | 1.67 h | 1.1 mL/min/kg | ≤ 0.01 | 0.02 | 0.016 | 71 µM (≈ 47.3 µg/mL) | 117% | < 2 µL/min/mg | 113% | < 2 µL/min/mg | > 10 µM | > 10 µM | > 10 µM | > 10 µM | > 10 µM | > 2 h | > 2 h

Reference: publication PMC12797170, “Potent Competitive Inhibitors of Ecto-5′-nucleotidase (CD73) based on 6‑(Het)aryl-7-deazapurine Ribonucleoside 5′‑O‑Bisphosphonates” (ACS Pharmacology & Translational Science, 2025)
